# According to ChEMBL document CHEMBL4651402, “Screening of ~5500 FDA-approved drugs and clinical candidates for anti-SARS-CoV-2 activity” (2021):
# System: SARS-CoV-2
# Experiment: microbe, parasite or virus in culture
# Conditions: Severe acute respiratory syndrome coronavirus 2, Vero C1008, 48 h
SMILES,IC50 [µM],IC50 (read-out: pIC50 (converted)) [µM]
O=C1C[C@@H](c2ccc(O)cc2)Oc2cc(O)cc(O)c21 [NARINGENIN],> 20,> 20
CN1[C@@H]2CC[C@H]1C[C@@H](OC(=O)c1c[nH]c3ccccc13)C2 [TROPISETRON],> 20,> 20
NS(=O)(=O)c1cc(C2(O)NC(=O)c3ccccc32)ccc1Cl (configuration not stated) [CHLORTHALIDONE],> 20,> 20
CCN1CCN(C(=O)NC(C(=O)NC2C(=O)N3C2SC(C)(C)C3C(=O)O)c2ccccc2)C(=O)C1=O (configuration not stated),> 20,> 20
CC1CC(OC(=O)c2ccccc2)CC(C)(C)N1 (configuration not stated),> 20,> 20
COc1ccc2c3c1O[C@H]1[C@@H](O)C=C[C@H]4[C@@H](C2)[N@+](C)([O-])CC[C@@]341,> 20,> 20
Cc1cn[nH]c1 [FOMEPIZOLE],> 20,> 20
COC1COCCC1N[C@@H]1CC[C@@](C(=O)N2CCc3ncc(C(F)(F)F)cc3C2)(C(C)C)C1 (some centres not stated),> 20,> 20
Cc1c2ccncc2c(C)c2c1[nH]c1ccccc12 [ELLIPTECINE],> 20,> 20
CCN(CC)C(=O)C1C=C2c3cccc4[nH]cc(c34)CC2N(C)C1 (configuration not stated),> 20,> 20
COc1cc(CNC(=O)CCCC/C=C/C(C)C)ccc1O [CAPSAICIN],> 20,> 20
Cc1nc2ccc(-n3ncc(C(=O)c4cc5ccccc5[nH]4)c3N)cc2[nH]1 [FGFR INHIBITOR DEBIO 1347],> 20,> 20
CC[C@]1(O)C[C@H]2CN(CCc3c([nH]c4ccccc34)[C@@](C(=O)OC)(c3cc4c(cc3OC)N(C=O)[C@H]3[C@@](O)(C(=O)OC)[C@H](OC(C)=O)[C@]5(CC)C=CCN6CC[C@]43[C@@H]65)C2)C1 [VINCRISTINE],> 20,> 20
CC[C@@H](C)C(=O)O[C@H]1[C@H](O)[C@H]2[C@@H](CN3C[C@@H](C)CC[C@H]3[C@@]2(C)O)[C@@H]2C[C@]34O[C@@]5(O)[C@@H](OC(=O)[C@](C)(O)CC)CC[C@@]3(C)[C@@H]5[C@@H](OC(C)=O)[C@@H](OC(C)=O)[C@H]4[C@@]21O,> 20,> 20
Cc1cc2c(cc1CC(=O)c1sccc1S(=O)(=O)Nc1onc(C)c1Cl)OCO2 [SITAXENTAN],> 20,> 20
CC(/C=C1\SC(=S)N(CC(=O)O)C1=O)=C\c1ccccc1,> 20,> 20
COc1cc(F)c(C(C)C)cc1-c1ccc(C(F)(F)F)cc1CN1C(=O)O[C@H](c2cc(C(F)(F)F)cc(C(F)(F)F)c2)[C@@H]1C [ANACETRAPIB],> 20,> 20
O=C(/C=C/c1ccc(O)c(O)c1)c1ccc(O)cc1O [BUTEIN],> 20,> 20
N=C(N)NS(=O)(=O)c1ccc(N)cc1 [SULFAGUANIDINE],> 20,> 20

SMILES,IC50 [µM],IC50 (read-out: pIC50 (converted)) [µM]
CC(C)(C)c1ccc(C(=O)CCCN2CCC(OC(c3ccccc3)c3ccccc3)CC2)cc1 [EBASTINE],> 20,> 20
CC(C)=CCCC(C)C1CCC2(C)C3=C(CCC12C)C1(C)CCC(O)C(C)(C)C1CC3 (configuration not stated),> 20,> 20
C[C@H]1O[C@@H](O[C@H]2[C@@H](O)C[C@H](O[C@H]3[C@@H](O)C[C@H](O[C@H]4CC[C@@]5(C)[C@H](CC[C@@H]6[C@@H]5C[C@@H](O)[C@]5(C)[C@@H](C7=CC(=O)OC7)CC[C@]65O)C4)O[C@@H]3C)O[C@@H]2C)C[C@H](O)[C@@H]1O [DIGOXIN],> 20,> 20
CC(C)OC(=O)[C@@H](C)NP(=O)(OC[C@H]1O[C@@H](n2ccc(=O)[nH]c2=O)[C@](C)(O)[C@@H]1O)Oc1ccccc1 (some centres not stated),> 20,> 20
O=P1(NCCCl)OCCCN1CCCl (configuration not stated) [IFOSFAMIDE],> 20,> 20
NCCOC[C@H](N)C(=O)O,> 20,> 20
O=P(O)(O)C(O)(Cc1cccnc1)P(=O)(O)O [RISEDRONIC ACID],> 20,> 20
CC(=O)[C@H]1CC[C@H]2[C@@H]3CCC4=CC(=O)CC[C@]4(C)[C@H]3CC[C@]12C [PROGESTERONE],> 20,> 20
COCC(=O)Nc1ccc(/N=C(\C)N(C)C)cc1,> 20,> 20
CC1(C)[C@@H](O[C@H]2O[C@H](C(=O)O)[C@@H](O)[C@H](O)[C@H]2O[C@@H]2O[C@H](C(=O)O)[C@@H](O)[C@H](O)[C@H]2O)CC[C@]2(C)[C@H]3C(=O)C=C4[C@@H]5C[C@@](C)(C(=O)O)CC[C@]5(C)CC[C@@]4(C)[C@]3(C)CC[C@@H]12 [GLYCYRRHIZIN],> 20,> 20
CNCCc1ccccn1 [BETAHISTINE],> 20,> 20
CCC(=O)OC1(c2ccccc2)CCN(C)C1C (configuration not stated) [PRODILIDINE],> 20,> 20
CC(C)C(=O)OC[C@@]1(N=[N+]=[N-])O[C@@H](n2ccc(N)nc2=O)[C@H](OC(=O)C(C)C)[C@@H]1OC(=O)C(C)C [BALAPIRAVIR],> 20,> 20
CCC[N+]12C3C[C@@H]([C@H](CC)[C@H]1O)[C@H]1[C@H](O)[C@]4(C[C@@H]12)c1ccccc1N(C)[C@@H]34,> 20,> 20
C[C@]12COC(=O)C[C@@H]1CC[C@@H]1[C@@H]2CC[C@@]2(C)[C@H]1CC[C@]2(C)O [OXANDROLONE],> 20,> 20
COCCNc1cc(NC(=O)N2CCCc3cc(CN4CCN(C)CC4=O)c(C=O)nc32)ncc1C#N [FGF401],> 20,> 20
CC(C)C[C@H](NC(=O)[C@@H](O)[C@H](N)Cc1ccccc1)C(=O)O [UBENIMEX],> 20,> 20
CCCCOc1ccc(CC(=O)NO)cc1 [BUFEXAMAC],> 20,> 20
NS(=O)(=O)NCc1csc2ccccc12,> 20,> 20

SMILES,IC50 [µM],IC50 (read-out: pIC50 (converted)) [µM]
CN[C@@H](C)C/C=C/c1cncc(OC(C)C)c1 [ISPRONICLINE],> 20,> 20
CS(=O)(=O)Nc1ccc2c(c1)S(=O)(=O)N=C(C1=C(O)C3C4CCC(C4)C3N(Cc3ccc(F)cc3)C1=O)N2 (configuration not stated),> 20,> 20
Nc1nc(=O)[nH]cc1F [FLUCYTOSINE],> 20,> 20
CC1(C)OC2CC3C4CC(F)C5=CC(=O)C=CC5(C)C4(Cl)C(Cl)CC3(C)C2(C(=O)CCl)O1 (configuration not stated),> 20,> 20
CC(=O)O[C@@H]1CCC2C3CCc4cc(O)ccc4C3CCC21C (some centres not stated),> 20,> 20
COc1ccc2c(c1)c(CC(=O)OCC(=O)O)c(C)n2C(=O)c1ccc(Cl)cc1 [ACEMETACIN],> 20,> 20
O=C(O)CC[C@H]1CC[C@](c2cc(F)ccc2F)(S(=O)(=O)c2ccc(Cl)cc2)CC1,> 20,> 20
Cc1nc(C)c(C)nc1C [LIGUSTRAZINE],> 20,> 20
CC(=O)OCC(=O)[C@@]1(O)CCC2C3C[C@H](C)C4=CC(=O)C=CC4(C)C3C(O)CC21C (some centres not stated),> 20,> 20
CC(=O)CCCCn1c(=O)c2c(ncn2C)n(C)c1=O [PENTOXIFYLLINE],> 20,> 20
CCCCCCOc1ccccc1C(N)=O [EXALAMIDE],> 20,> 20
Cc1ccc(C(=O)Nc2ccc(Oc3cc4cnn(C)c4cc3-c3cn[nH]c3)c(F)c2)c(=O)n1-c1ccc(F)cc1 [MERESTINIB],> 20,> 20
Cc1ccc(N(CC2=NCCN2)c2cccc(O)c2)cc1 [PHENTOLAMINE],> 20,> 20
COc1ccc(C[C@H]2NC[C@H](O)[C@H]2OC(C)=O)cc1 [ANISOMYCIN],> 20,> 20
C/N=C(/NC)NCc1ccc(OC)cc1 [MEOBENTINE],> 20,> 20
CN(C)CCC(c1ccc(Cl)cc1)c1ccccn1 (configuration not stated) [CHLORPHENIRAMINE],> 20,> 20
CO[C@H]1/C=C\O[C@@]2(C)Oc3c(C)c(O)c4c(O)c(c(/C=N/N5CCN(C6CCCC6)CC5)c(O)c4c3C2=O)NC(=O)/C(C)=C\C=C/[C@H](C)[C@H](O)[C@@H](C)[C@@H](O)[C@@H](C)[C@H](OC(C)=O)[C@@H]1C,> 20,> 20
COc1cc2ncnc(Nc3cccc(Br)c3)c2cc1OC,> 20,> 20
